Measured values taken from patent US20260042755A1, “GPR6 INVERSE AGONISTS” (MapLight Therapeutics, Inc., priority 2022, published 2026).
Each block holds one molecule with its values, some of them ahead of it.

Tests used:
[1] = target: T1, GPR6 (Homo sapiens, UniProt P46095); test: GPR6 antagonist functional cAMP assay (LANCE Ultra cAMP TR-FRET, CHO cells stably expressing GPR6); format: cell-based
T1 construct: expressed in transfected cells; host or cells: CHO cells
Outline: (§1)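 Stable CHO-GPR6 or CHO-GPR3 cells (10,000/well) in Krebs-Ringer buffer with 0.1% BSA and 150 μM Ro 20-1724 were exposed to compounds for 45 min at 37° C (0.1% DMSO). cAMP read by LANCE Ultra TR-FRET; IC50 from 4-parameter fit normalized to DMSO and reference compounds.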

[2] = target: T2, GPR3 (Homo sapiens, UniProt P46089); test: GPR3 antagonist functional cAMP assay (LANCE Ultra cAMP TR-FRET, CHO cells stably expressing GPR3); format: cell-based
T2 construct: expressed in transfected cells; host or cells: CHO cells
Outline: as §1

[3] = CHO cells stably expressing GPR6, cAMP assay (Example 24)
[4] = CHO cells stably expressing GPR3, cAMP assay (Example 24)
[5] = procedure as described in Example 24
[6] = CHO cells stably expressing GPR6, cAMP assay
[7] = CHO cells stably expressing GPR3, cAMP assay

T2 sequence (P46089 whole entry, species assumed): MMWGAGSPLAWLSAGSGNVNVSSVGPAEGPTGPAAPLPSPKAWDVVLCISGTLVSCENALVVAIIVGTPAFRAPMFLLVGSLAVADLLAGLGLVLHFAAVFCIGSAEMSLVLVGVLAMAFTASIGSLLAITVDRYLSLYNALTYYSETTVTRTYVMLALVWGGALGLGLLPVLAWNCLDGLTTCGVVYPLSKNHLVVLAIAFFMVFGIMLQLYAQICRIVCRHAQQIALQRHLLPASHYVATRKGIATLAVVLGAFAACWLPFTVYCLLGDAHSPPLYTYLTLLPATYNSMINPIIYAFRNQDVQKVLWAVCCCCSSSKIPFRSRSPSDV
T1 sequence (P46095 whole entry): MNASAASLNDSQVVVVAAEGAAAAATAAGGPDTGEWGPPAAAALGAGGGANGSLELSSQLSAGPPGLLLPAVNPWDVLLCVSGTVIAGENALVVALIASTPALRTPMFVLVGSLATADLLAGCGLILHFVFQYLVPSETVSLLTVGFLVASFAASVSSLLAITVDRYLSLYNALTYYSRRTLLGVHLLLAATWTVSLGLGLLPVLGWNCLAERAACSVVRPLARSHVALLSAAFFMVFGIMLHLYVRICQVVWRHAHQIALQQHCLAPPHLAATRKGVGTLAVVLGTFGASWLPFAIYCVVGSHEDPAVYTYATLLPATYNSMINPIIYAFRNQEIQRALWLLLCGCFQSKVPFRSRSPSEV

SMILES: CC(=O)N1CCc2nc(N3CCC(Oc4ccc(F)cc4F)CC3)c(-c3cccc(N)n3)nc2C1 [Compound 168, 1-[3-(6-aminopyridin-2-yl)-2-[4-(2,4-difluorophenoxy)piperidin-1-yl]-5H,6H,7H,8H-pyrido[3,4-b]pyrazin-6-yl]ethan-1-one]
IC50 [1, 3]: < 100 nM
IC50 [2, 4]: 100 to 1000 nM

SMILES: CNC(=O)Cn1cc(-c2nc3c(nc2N2CCC(Oc4ccc(F)cc4F)CC2)CCN(C(C)=O)C3)cn1 [Compound 25, 2-(4-{6-acetyl-2-[4-(2,4-difluorophenoxy)piperidin-1-yl]-5H,6H,7H,8H-pyrido[3,4-b]pyrazin-3-yl}-1H-pyrazol-1-yl)-N-methylacetamide]
IC50 [1, 5]: 1000 to 30000 nM
IC50 [2, 5]: 1000 to 30000 nM

SMILES: CN(c1ccc(F)cc1F)C1CCN(c2nc3ccncc3nc2-c2cn[nH]c2)CC1 [Compound 55, 1-(3-(1H-pyrazol-4-yl)pyrido[3,4-b]pyrazin-2-yl)-N-(2,4-difluorophenyl)-N-methylpiperidin-4-amine]
IC50 [1, 5]: 1000 to 30000 nM
IC50 [2, 5]: 1000 to 30000 nM

SMILES: Cc1cncc2nc(-c3cnn(C)c3)c(N3CCC(Oc4ccc(F)cc4F)CC3)nc12 [Compound 480, 4-(2,4-difluorophenoxy)-1-[8-methyl-3-(1-methyl-1H-pyrazol-4-yl)pyrido[3,4-b]pyrazin-2-yl]piperidine]
IC50 [1, 3]: 100 to 1000 nM
IC50 [2, 4]: 1000 to 30000 nM

SMILES: CC(=O)N1CCc2nc(N3CCC(Oc4ccc(F)cc4F)CC3)c(-c3cncc(O)c3)nc2C1 [Compound 158, 1-{2-[4-(2,4-difluorophenoxy)piperidin-1-yl]-3-(5-hydroxypyridin-3-yl)-5H,6H,7H,8H-pyrido[3,4-b]pyrazin-6-yl}ethan-1-one]
IC50 [1, 3]: 1000 to 30000 nM
IC50 [2, 4]: 1000 to 30000 nM

SMILES: Cn1cc(-c2nc3cnc(N4CCOCC4)cc3nc2N2CCC(Oc3ccc(F)cc3F)CC2)cn1 [Compound 449, 4-{2-[4-(2,4-difluorophenoxy)piperidin-1-yl]-3-(1-methyl-1H-pyrazol-4-yl)pyrido[3,4-b]pyrazin-7-yl}morpholine]
IC50 [1, 3]: 1000 to 30000 nM
IC50 [2, 4]: 1000 to 30000 nM

SMILES: CCn1cc(-c2nc3cnc(C(O)C(C)(C)O)cc3nc2N2CCC(Oc3ccc(F)cc3F)CC2)cn1 (centres unmarked) [Compound 307, 1-{2-[4-(2,4-difluorophenoxy)piperidin-1-yl]-3-(1-ethyl-1H-pyrazol-4-yl)pyrido[3,4-b]pyrazin-7-yl}-2-methylpropane-1,2-diol]
IC50 ([1]; procedure of Example 24): 100 to 1000 nM
IC50 ([2]; procedure of Example 24): 1000 to 30000 nM

SMILES: COC(=O)N1CCc2nc(N3CCC(Oc4ccc(F)cc4F)CC3)c(-c3cn[nH]c3)nc2C1 [Compound 154, methyl 2-[4-(2,4-difluorophenoxy)piperidin-1-yl]-3-(1H-pyrazol-4-yl)-5H,6H,7H,8H-pyrido[3,4-b]pyrazine-6-carboxylate]
IC50 [1, 3]: < 100 nM
IC50 [2, 4]: 1000 to 30000 nM

SMILES: CC(=O)N1CCc2nc(N3CCC(Oc4ccc(F)cc4F)CC3)c(-c3cccc(OC(C)C)n3)nc2C1 [Compound 39, 1-{2-[4-(2,4-difluorophenoxy)piperidin-1-yl]-3-[6-(propan-2-yloxy)pyridin-2-yl]-5H,6H,7H,8H-pyrido[3,4-b]pyrazin-6-yl}ethan-1-one]
IC50 [1, 5]: 1000 to 30000 nM
IC50 [2, 5]: 100 to 1000 nM

SMILES: CC(=O)N1CCc2nc(N3CCN(Cc4c(F)ccc(F)c4F)CC3)c(-c3cnn(C)c3)nc2C1 [Compound 354, 1-[3-(1-methyl-1H-pyrazol-4-yl)-2-{4-[(2,3,6-trifluorophenyl)methyl]piperazin-1-yl}-5H,6H,7H,8H-pyrido[3,4-b]pyrazin-6-yl]ethan-1-one]
IC50 ([1]; procedure of Example 24): 1000 to 30000 nM
IC50 ([2]; procedure of Example 24): 1000 to 30000 nM

SMILES: Fc1ccc(OC2CCN(c3nc4ccncc4nc3-c3ncn[nH]3)CC2)c(F)c1 [Compound 96, 4-(2,4-difluorophenoxy)-1-[3-(1H-1,2,4-triazol-5-yl)pyrido[3,4-b]pyrazin-2-yl]piperidine]
IC50 [1, 3]: 1000 to 30000 nM
IC50 [2, 4]: 1000 to 30000 nM

SMILES: COc1ncccc1-c1nc2c(nc1N1CCC(Oc3ccc(F)cc3F)CC1)CCN(C(C)=O)C2 [Compound 112, 1-{2-[4-(2,4-difluorophenoxy)piperidin-1-yl]-3-(2-methoxypyridin-3-yl)-5H,6H,7H,8H-pyrido[3,4-b]pyrazin-6-yl}ethan-1-one]
IC50 [1, 3]: 1000 to 30000 nM
IC50 [2, 4]: 1000 to 30000 nM

SMILES: Cn1cc(-c2nc3cnccc3nc2N2CCN(Cc3ccc(F)cc3F)CC2=O)cn1 [Compound 259, 4-(2,4-difluorobenzyl)-1-(3-(1-methyl-1H-pyrazol-4-yl)pyrido[3,4-b]pyrazin-2-yl)piperazin-2-one]
IC50 [1, 3]: ≥ 30000 nM
IC50 [2, 4]: ≥ 30000 nM

SMILES: [2H]C([2H])([2H])n1cc(-c2nc3c(nc2N2CCC(Oc4ccc(F)cc4F)CC2)CCN(C(C)=O)C3)cn1 [Compound 405, 1-{2-[4-(2,4-difluorophenoxy)piperidin-1-yl]-3-[1-(2H3)methyl-1H-pyrazol-4-yl]-5H,6H,7H,8H-pyrido[3,4-b]pyrazin-6-yl}ethan-1-one]
IC50 [1, 3]: 100 to 1000 nM
IC50 [2, 4]: 1000 to 30000 nM

SMILES: CCc1cccc(-c2nc3c(nc2N2CCC(Oc4ccc(F)cc4F)CC2)CCN(C(C)=O)C3)n1 [Compound 477, 1-{2-[4-(2,4-difluorophenoxy)piperidin-1-yl]-3-(6-ethylpyridin-2-yl)-5H,6H,7H,8H-pyrido[3,4-b]pyrazin-6-yl}ethan-1-one]
IC50 [1, 3]: 1000 to 30000 nM
IC50 [2, 4]: 1000 to 30000 nM

SMILES: CC(=O)N1CCc2nc(N3CCC(Oc4ccc(F)cc4F)CC3)c(-c3ccn(C)c(=O)c3)nc2C1 [Compound 78, 4-{6-acetyl-2-[4-(2,4-difluorophenoxy)piperidin-1-yl]-5H,6H,7H,8H-pyrido[3,4-b]pyrazin-3-yl}-1-methyl-1,2-dihydropyridin-2-one]
IC50 [1, 3]: 1000 to 30000 nM
IC50 [2, 4]: 1000 to 30000 nM

SMILES: CC(=O)N1CCc2nc(N3CC[C@H](Oc4ccc(F)cc4F)[C@H](F)C3)c(-c3cnn(C)c3)nc2C1 (single isomer, unassigned) [Compound 334]
IC50 ([1]; procedure of Example 24): 1000 to 30000 nM
IC50 ([2]; procedure of Example 24): 1000 to 30000 nM

SMILES: Cn1cc(-c2nc3cnc(C[C@H](O)CO)cc3nc2N2CCC(Oc3ccc(F)cc3F)CC2)cn1 (single isomer, unassigned) [Compound 416]
IC50 [1, 3]: 100 to 1000 nM
IC50 [2, 4]: 1000 to 30000 nM

SMILES: CC(O)c1cc2nc(N3CCC(Oc4ccc(F)cc4F)CC3)c(-c3cnn(C)c3)nc2cn1 (centres unmarked) [Compound 467, 1-{2-[4-(2,4-difluorophenoxy)piperidin-1-yl]-3-(1-methyl-1H-pyrazol-4-yl)pyrido[3,4-b]pyrazin-7-yl}ethan-1-ol]
IC50 [1, 3]: 1000 to 30000 nM
IC50 [2, 4]: 1000 to 30000 nM

SMILES: CC(=O)N1CCc2nc(N3CC=CCC3)c(-c3cnn(C)c3)nc2C1 [Compound 422, 1-[3-(1-methyl-1H-pyrazol-4-yl)-2-(1,2,3,6-tetrahydropyridin-1-yl)-5H,6H,7H,8H-pyrido[3,4-b]pyrazin-6-yl]ethan-1-one]
IC50 [1, 3]: ≥ 30000 nM
IC50 [2, 4]: 1000 to 30000 nM

SMILES: COC1CN(c2cc3nc(N4CCC(Oc5ccc(F)cc5F)CC4)c(-c4cnn(C)c4)nc3cn2)C1 [Compound 450, 4-(2,4-difluorophenoxy)-1-[7-(3-methoxyazetidin-1-yl)-3-(1-methyl-1H-pyrazol-4-yl)pyrido[3,4-b]pyrazin-2-yl]piperidine]
IC50 [1, 3]: 1000 to 30000 nM
IC50 [2, 4]: 1000 to 30000 nM

Other lines, results leading:

IC50 ([1]; procedure of Example 24): 100 to 1000 nM
IC50 ([2]; procedure of Example 24): 1000 to 30000 nM
SMILES: CC(C)(O)Cc1cc2nc(N3CCC(Oc4ccc(F)cc4F)CC3)c(-c3cnn(CF)c3)nc2cn1 [Compound 710, 1-{2-[4-(2,4-difluorophenoxy)-1-piperidyl]-3-[1-(fluoromethyl)-4-pyrazolyl]-1,4,6-triaza-7-naphthyl}-2-methyl-2-propanol]

IC50 ([1]; procedure of Example 24): 100 to 1000 nM
IC50 ([2]; procedure of Example 24): 1000 to 30000 nM
SMILES: CC(C)(O)[C@@](C)(O)c1cc2nc(-c3cnn(CF)c3)c(N3CCN(Cc4ccccc4F)CC3)nc2cn1 (single isomer, unassigned) [Compound 715]

IC50 [1, 6]: < 100 nM
IC50 [2, 7]: 1000 to 30000 nM
SMILES: CC(C)(O)C(O)c1cc2nc(-c3cnn(C(F)F)c3)c(N3CCC(Oc4ccc(F)cc4F)CC3)nc2cn1 (single isomer, unassigned) [Compound 583]

IC50 [1, 6]: 100 to 1000 nM
IC50 [2, 7]: 1000 to 30000 nM
SMILES: CC(=O)N1CCc2nc(N3CCC(Oc4ccc(F)cc4F)CC3)c(C3CC3CO)nc2C1 (centres unmarked) [Compound 489, 1-(2-(4-(2,4-difluorophenoxy)piperidin-1-yl)-3-(2-(hydroxymethyl)cyclopropyl)-7,8-dihydropyrido[3,4-b]pyrazin-6(5H)-yl)ethan-1-one]

IC50 [1, 6]: 100 to 1000 nM
IC50 [2, 7]: 1000 to 30000 nM
SMILES: CC(C)(O)C(C)(O)c1cc2nc(N3CCN(Cc4ccc(F)cc4F)CC3)c(-c3cnn(CF)c3)nc2cn1 (centres unmarked) [Compound 607, 2-(2-{4-[(2,4-difluorophenyl)methyl]-1-piperazinyl}-3-[1-(fluoromethyl)-4-pyrazolyl]-1,4,6-triaza-7-naphthyl)-3-methyl-2,3-butanediol]

IC50 ([1]; procedure of Example 24): 100 to 1000 nM
IC50 ([2]; procedure of Example 24): 1000 to 30000 nM
SMILES: COC[C@](C)(O)c1cc2nc(N3CCC(Oc4ccc(F)cc4F)CC3)c(-c3cnn(C)c3)nc2cn1 (single isomer, unassigned) [Compound 614]

IC50 [1, 6]: < 100 nM
IC50 [2, 7]: 100 to 1000 nM
SMILES: CC(C)(O)C(O)c1cc2nc(-c3cnn(C4CC4)c3)c(N3CCN(Cc4ccc(F)cc4F)CC3)nc2cn1 (single isomer, unassigned) [Compound 600]

IC50 [1, 6]: 1000 to 30000 nM
IC50 [2, 7]: 1000 to 30000 nM
SMILES: COC1CCC(c2nc3c(nc2N2CCC(Oc4ccc(F)cc4F)CC2)CCN(C(=O)CO)C3)CC1 (centres unmarked) [Compound 520, 1-{2-[4-(2,4-difluorophenoxy)-1-piperidyl]-3-(4-methoxycyclohexyl)-5,6,7,8-tetrahydro-1,4,6-triaza-6-naphthyl}-2-hydroxy-1-ethanone]

IC50 ([1]; procedure of Example 24): 100 to 1000 nM
IC50 ([2]; procedure of Example 24): 1000 to 30000 nM
SMILES: CC(C)(O)C(C)(O)c1cc2nc(N3CCC(Oc4ccc(F)cc4F)CC3)c(-c3cnn(C4CC4)c3)nc2cn1 (centres unmarked) [Compound 632, 2-{3-(1-cyclopropyl-4-pyrazolyl)-2-[4-(2,4-difluorophenoxy)-1-piperidyl]-1,4,6-triaza-7-naphthyl}-3-methyl-2,3-butanediol]

IC50 ([1]; procedure of Example 24): 100 to 1000 nM
IC50 ([2]; procedure of Example 24): 100 to 1000 nM
SMILES: CC(C)(O)C(O)c1cc2nc(-c3cnn(CF)c3)c(N3CCC(=Cc4ccc(F)cc4F)CC3)nc2cn1 (single isomer, unassigned) [Compound 777]
